Results taken from publication PMC10267561, “PI3P-dependent regulation of cell size and autophagy by phosphatidylinositol 5-phosphate 4-kinase” (Life Science Alliance, 2023).

Target: T1, Mtm (Mtm^WT::GFP) (Drosophila melanogaster, UniProt Q9VMI9)
T1 construct: C-terminal GFP tag, overexpressed (da-Gal4) in third instar larvae, whole larval lysate; ~100 kD
T1 sequence (Q9VMI9 1-619): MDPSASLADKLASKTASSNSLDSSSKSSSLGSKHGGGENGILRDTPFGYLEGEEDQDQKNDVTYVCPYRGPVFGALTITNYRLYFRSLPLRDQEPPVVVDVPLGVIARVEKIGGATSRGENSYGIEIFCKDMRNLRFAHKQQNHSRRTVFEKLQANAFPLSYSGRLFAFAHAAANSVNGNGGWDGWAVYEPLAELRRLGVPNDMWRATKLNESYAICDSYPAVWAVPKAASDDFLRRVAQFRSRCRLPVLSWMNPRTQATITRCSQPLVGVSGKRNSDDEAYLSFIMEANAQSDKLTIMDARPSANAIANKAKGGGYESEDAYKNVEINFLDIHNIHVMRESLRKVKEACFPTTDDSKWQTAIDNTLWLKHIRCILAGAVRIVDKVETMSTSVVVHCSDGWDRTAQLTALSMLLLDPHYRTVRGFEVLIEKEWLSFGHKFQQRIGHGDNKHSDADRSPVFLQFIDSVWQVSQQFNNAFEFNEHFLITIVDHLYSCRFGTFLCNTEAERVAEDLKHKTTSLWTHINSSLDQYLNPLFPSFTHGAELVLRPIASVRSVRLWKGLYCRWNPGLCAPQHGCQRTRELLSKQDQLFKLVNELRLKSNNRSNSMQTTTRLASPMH
Assay: LC-MS/MS in vitro 3-phosphatase assay, overexpressing larval lysate vs control lysate
Type: biochemical
Details: pH 7.4 lipid suspension, phosphatidylserine, 15 min, 37 °C; 10 ug lysate protein

CCCCC/C=C\C/C=C\C/C=C\C/C=C\CCCC(=O)O[C@H](COC(=O)CCCCCCCCCCCCCCCC)COP(=O)(O)O[C@@H]1[C@H](O)[C@H](OP(=O)(O)O)[C@@H](O)[C@H](O)[C@H]1O [17:0 20:4 PI3P]
3-phosphatase activity, overexpressing vs control lysate: lysates with Mtm overexpression showed significantly higher PI3P 3-phosphatase activity compared with control lysates
